Test [1] deals with catalytic domain (JH1, amino acids 826-1132) of human JAK2 (Homo sapiens (Human), UniProt O60674). Nature of the test: JAK2 LanthaScreen JH1 Binding Assay. The settings on record: JAK2 JH1 1.5 nM, 50 nM fluorescent tracer, 2 hours at 25° C.; read-out: JH1 BIND IC50. On the procedure: Example A. JAK2 LanthaScreen JH1 Binding Assay
(§1) JAK2 JH1 binding assay utilizes catalytic domain (JH1, amino acids 826-1132) of human JAK2 expressed as N-terminal FLAG-tagged, biotinylated protein in a baculovirus expression system (Carna Biosciences, Product #08-445-20N). The assay was conducted in black 384-well polystyrene plates in a final reaction volume of 20 μL. JAK2 JH1 (1.5 nM) was incubated with compounds (100 nL serially diluted in DMSO) in the presence of 50 nM Fluorescent JAK2-JH1 Tracer and 0.5 nM Streptavidin-Tb cryptate (Cisbio Part #610SATLB) in assay buffer (50 mM Tris, pH=7.5, 10 mM MgCl2, 0.01% Brij-35, 0.1% BSA, 1 mM EGTA, 5% Glycerol and 5 mM DTT). Non-specific binding was accessed in the presence of 2 mM ATP. After incubation for 2 hours at 25° C., LanthaScreen signals were read on a PHERAstar FS plate reader (BMG LABTECH). Data was analyzed with IDBS XLfit and GraphPad Prism 5.0 software using a four parameter dose response curve to determine IC50 for each compound.
Background: Time-resolved FRET reads energy transfer from a long-lived donor to a nearby acceptor.

In test [2] the target is catalytic domain (JH1, amino acids 808-1132) of human JAK2 (Homo sapiens (Human), UniProt O60674). Nature of the test: JAK2 HTRF Enzyme Activity Assay. The format is biochemical. The settings on record: JAK2 0.015 nM, ATP (30 μM or 1 mM), 60 minutes at 25° C. On the procedure: Example D. JAK2 HTRF Enzyme Activity Assay
JAK2 enzyme activity assays utilize catalytic domain (JH1, amino acids 808-1132) of human JAK2 expressed as N-terminal His-tagged protein in a baculovirus expression system (BPS Bioscience, Catalog #40450). The assays was conducted in black 384-well polystyrene plates in a final reaction volume of 20 μL. JAK2 (0.015 nM) was incubated with compounds (100 nL serially diluted in DMSO) in the presence of ATP (30 μM or 1 mM) and 500 nM Biotin-labeled […] (SEQ ID NO.: 1) peptide (BioSource International, custom synthesis) in assay buffer (50 mM Tris, pH=7.5, 10 mM MgCl2, 0.01% Brij-35, 0.1% BSA, 1 mM EGTA, 5% Glycerol and 5 mM DTT) for 60 minutes at 25° C. The reactions were stopped by the addition of 10 μL of detection buffer (50 mM Tris, pH 7.8, 0.5 mg/mL BSA, 150 mM NaCl), supplemented with EDTA, LANCE Eu-W1024 anti-phosphotyrosine (PY20), (PerkinElmer, Catalog #AD0067) and Streptavidin SureLight APC (PerkinElmer Catalog #CR130-100), for a final concentration of 15 mM, 1.5 nM and 75 nM, respectively. HTRF signals were read after 30 minutes incubation at room temperature on a PHERAstar FS plate reader (BMG LABTECH). Data was analyzed with IDBS XLfit and GraphPad Prism 5.0 software using a four parameter dose response curve to determine IC50 for each compound.

Test [3] addresses pseudo-kinase domain (JH2, amino-acids 536-812) of human Wild Type JAK2 (Homo sapiens (Human), UniProt O60674, F794H/W659A/W777A). Nature of the test: JAK2 LanthaScreen JH2-WT Binding Assay. To be noted: JAK2 JH2-WT 0.145 nM, 50 nM fluorescent tracer, 1 hour at 25° C.; read-out: JH2 BIND WT IC50. Here is the method:
Example B. JAK2 LanthaScreen JH2-WT Binding Assay
as §1, with “The” for “JAK2 JH1 binding assay utilizes catalytic domain (JH1, amino acids 826-1132) of human JAK2 expressed as N-terminal FLAG-tagged, biotinylated protein in a baculovirus expression system (Carna Biosciences, Product #08-445-20N). The”, “JH2-WT (0.145” for “JH1 (1.5”, “JAK2-JH2” for “JAK2-JH1”, “Tracer (MedChem Express Catalog #HY-102055)” for “Tracer”, “0.25” for “0.5”, “1 hour” for “2 hours”

The target in test [4] is pseudo-kinase domain (JH2, amino-acids 536-812) of human V617F mutant JAK2 (Homo sapiens (Human), UniProt O60674, F794H/V617F/W659A/W777A). The experiment in a line: JAK2 LanthaScreen JH2-V617F Binding Assay. The settings on record: JAK2 JH2-V617F 0.26 nM, 50 nM fluorescent tracer, 1 hour at 25° C.; read-out: JH2 BIND V617F IC50. Here is the method:
The assay was conducted in black 384-well polystyrene plates in a final reaction volume of 20 μL. […] Non-specific binding was accessed in the presence of 2 mM ATP. After incubation for 1 hour at 25° C., LanthaScreen signals were read on a PHERAstar FS plate reader (BMG LABTECH). Data was analyzed with IDBS XLfit and GraphPad Prism 5.0 software using a four parameter dose response curve to determine IC50 for each compound.

Counter-ions that a name gives are not always drawn.

Data on ten compounds can be found in US11661422B2, “Tricyclic urea compounds as JAK2 V617F inhibitors” (Incyte Corporation, priority 2020, dated 2023).

Chain of catalytic domain (JH1, amino acids 826-1132) of human JAK2 (O60674 826-1132): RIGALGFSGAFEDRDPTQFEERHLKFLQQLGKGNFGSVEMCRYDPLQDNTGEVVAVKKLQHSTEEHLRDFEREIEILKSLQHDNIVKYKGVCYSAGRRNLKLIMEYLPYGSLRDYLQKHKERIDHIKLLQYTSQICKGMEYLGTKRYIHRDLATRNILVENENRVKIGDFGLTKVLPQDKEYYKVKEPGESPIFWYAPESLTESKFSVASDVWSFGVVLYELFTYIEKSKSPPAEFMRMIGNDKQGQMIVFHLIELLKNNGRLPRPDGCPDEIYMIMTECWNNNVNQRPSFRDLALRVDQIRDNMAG
Chain of pseudo-kinase domain (JH2, amino-acids 536-812) of human V617F mutant JAK2 (O60674 536-812 V617F/W659A/W777A/F794H): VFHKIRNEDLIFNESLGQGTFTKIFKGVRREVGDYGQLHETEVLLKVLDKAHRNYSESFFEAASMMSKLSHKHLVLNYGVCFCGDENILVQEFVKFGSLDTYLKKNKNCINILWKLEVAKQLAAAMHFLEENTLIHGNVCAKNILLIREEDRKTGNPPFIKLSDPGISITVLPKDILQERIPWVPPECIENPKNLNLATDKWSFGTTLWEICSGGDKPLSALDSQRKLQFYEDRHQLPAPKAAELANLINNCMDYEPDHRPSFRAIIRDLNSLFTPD
Chain of catalytic domain (JH1, amino acids 808-1132) of human JAK2 (O60674 808-1132): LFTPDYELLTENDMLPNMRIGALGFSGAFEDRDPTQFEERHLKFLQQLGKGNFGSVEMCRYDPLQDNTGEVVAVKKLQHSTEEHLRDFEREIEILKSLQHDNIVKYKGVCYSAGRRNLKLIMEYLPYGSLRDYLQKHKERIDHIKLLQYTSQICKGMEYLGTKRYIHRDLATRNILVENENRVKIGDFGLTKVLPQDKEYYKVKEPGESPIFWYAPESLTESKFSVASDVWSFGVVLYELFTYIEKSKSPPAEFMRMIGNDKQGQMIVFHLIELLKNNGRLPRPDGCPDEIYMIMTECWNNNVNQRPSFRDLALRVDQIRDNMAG
Chain of pseudo-kinase domain (JH2, amino-acids 536-812) of human Wild Type JAK2 (O60674 536-812 W659A/W777A/F794H): as the sequence (O60674 536-812 V617F/W659A/W777A/F794H) above, with F82V counted along it

For orientation: IC50 means the concentration needed to halve the response being measured. In the case of `COc1ccc(-c2c(-c3ccc(CN4CCC(S(C)(=O)=O)CC4)cc3)[nH]c3ncc4c(c23)CN(c2ccc(C(=O)NCC(=O)NNCc3ccccc3)cc2)C(=O)N4C)cc1` [Example 13, N-(2-(2-Benzylhydrazineyl)-2-oxoethyl)-4-(9-(4-methoxyphenyl)-4-methyl-8-(4-((4-(methylsulfonyl)piperidin-1-yl)methyl)phenyl)-3-oxo-1,3,4,7-tetrahydro-2H-pyrrolo[3′,2′: 5,6]pyrido[3,4-d]pyrimidin-2-yl)benzamide, TFA], the IC50 in test [1] and in test [2] was 1000 to 2500 nM each time.
Turning to `CS(=O)(=O)C1CCN(Cc2ccc(-c3cc4c5c(cnc4[nH]3)NC(=O)N(C3CCN(S(N)(=O)=O)CC3)C5)cc2)CC1` [Example 7, 4-(8-(4-((4-(methylsulfonyl)piperidin-1-yl)methyl)phenyl)-3-oxo-1,3,4,7-tetrahydro-2H-pyrrolo[3′,2′:5,6]pyrido[3,4-d]pyrimidin-2-yl)piperidine-1-sulfonamide], the IC50 in test [1] is no more than 100 nM; in test [3], 500 to 1000 nM; in test [4], 1000 to 2500 nM; in test [2] it was no more than 100 nM.
With `CC(=O)N1CCN(c2ccc(-c3c(-c4ccc(CN5CCC(S(C)(=O)=O)CC5)cc4)[nH]c4ncc5c(c34)CN(C(C)(C)C)C(=O)N5C)cc2)CC1` [Example 18, 9-(4-(4-Acetylpiperazin-1-yl)phenyl)-2-(tert-butyl)-4-methyl-8-(4-((4-(methylsulfonyl)piperidin-1-yl)methyl)phenyl)-1,2,4,7-tetrahydro-3H-pyrrolo[3′,2′:5,6]pyrido[3,4-d]pyrimidin-3-one, trifluoroacetic acid salt], the IC50 in test [1], in test [3], in test [4] and in test [2] was no more than 100 nM throughout.
Regarding `CN1C(=O)N(c2ccc(C(=O)O)cc2)Cc2c1cnc1[nH]c(-c3ccc(CN4CCC(S(C)(=O)=O)CC4)cc3)c(-c3ccc(C4(N)CC4)cc3)c21` [Example 21, 4-(9-(4-(1-Aminocyclopropyl)phenyl)-4-methyl-8-(4-((4-(methylsulfonyl)piperidin-1-yl)methyl)phenyl)-3-oxo-1,3,4,7-tetrahydro-2H-pyrrolo[3′,2′:5,6]pyrido[3,4-d]pyrimidin-2-yl)benzoic acid trifluoroacetic acid salt (1:2)], the IC50 in test [1] was 1000 to 2500 nM; in test [3] it was no more than 100 nM; in test [4], no more than 100 nM; in test [2] it was greater than 2500 nM.
Turning to `CC(=O)N1CC=C(c2c(-c3ccc(CN4CCC(S(C)(=O)=O)CC4)cc3)[nH]c3ncc4c(c23)CN(c2ccc(C(=O)O)cc2)C(=O)N4C)CC1` [Example 20, 4-(9-(1-Acetyl-1,2,3,6-tetrahydropyridin-4-yl)-4-methyl-8-(4-((4-(methylsulfonyl)piperidin-1-yl)methyl)phenyl)-3-oxo-1,3,4,7-tetrahydro-2H-pyrrolo[3′,2′:5,6]pyrido[3,4-d]pyrimidin-2-yl)benzoic acid Trifluoroacetic Acid Salt], the 50% inhibitory concentration (IC50) in test [1] is greater than 2500 nM; in test [3], no more than 100 nM; in test [4] it was no more than 100 nM; in test [2], greater than 2500 nM.
Consider `CN1C(=O)N(c2ccc(C(=O)O)cc2)Cc2c1cnc1[nH]c(-c3ccc(CN4CCC(S(C)(=O)=O)CC4)cc3)c(C3CC3)c21` [Example 23, 4-(9-Cyclopropyl-4-methyl-8-(4-((4-(methylsulfonyl)piperidin-1-yl)methyl)phenyl)-3-oxo-1,3,4,7-tetrahydro-2H-pyrrolo[3′,2′:5,6]pyrido[3,4-d]pyrimidin-2-yl)benzoic acid, trifluoroacetic acid salt], for which the IC50 was greater than 2500 nM in test [1], no more than 100 nM in test [3], no more than 100 nM in test [4] and greater than 2500 nM in test [2].
As for `CN1C(=O)N(c2ccc(C(=O)O)cc2)Cc2c1cnc1[nH]c(-c3ccc(CN4CCC(S(C)(=O)=O)CC4)cc3)c(-c3ccn(C)c3)c21` [Example 22, 4-(4-Methyl-9-(1-methyl-1H-pyrrol-3-yl)-8-(4-((4-(methylsulfonyl)piperidin-1-yl)methyl)phenyl)-3-oxo-1,3,4,7-tetrahydro-2H-pyrrolo[3′,2′:5,6]pyrido[3,4-d]pyrimidin-2-yl)benzoic acid trifluoroacetic acid salt], the IC50 in test [1] is 1000 to 2500 nM; in test [3] it was no more than 100 nM; in test [4] it was no more than 100 nM; in test [2], 1000 to 2500 nM.
Regarding `CNS(=O)(=O)c1ccc(-c2c(-c3ccc(CN4CCC(S(C)(=O)=O)CC4)cc3)[nH]c3ncc4c(c23)CN(C(C)(C)C)C(=O)N4C)cc1` [Example 17, 4-(2-(tert-Butyl)-4-methyl-8-(4-((4-(methylsulfonyl)piperidin-1-yl)methyl)phenyl)-3-oxo-2,3,4,7-tetrahydro-1H-pyrrolo[3′,2′:5,6]pyrido[3,4-d]pyrimidin-9-yl)-N-methylbenzenesulfonamide, trifluoroacetic acid salt], the IC50 in test [1], in test [3], in test [4] and in test [2] was no more than 100 nM in each case.
On to `COc1ccc(-c2c(-c3ccc(CN4CCC(S(C)(=O)=O)CC4)cc3)[nH]c3ncc4c(c23)CN(c2ccc(C(=O)Nc3cccnc3)cc2)C(=O)N4C)cc1` [Example 11, 4-(9-(4-Methoxyphenyl)-4-methyl-8-(4-((4-(methylsulfonyl)piperidin-1-yl)methyl)phenyl)-3-oxo-1,3,4,7-tetrahydro-2H-pyrrolo[3′,2′:5,6]pyrido[3,4-d]pyrimidin-2-yl)-N-(pyridin-3-yl)benzamide, Bistrifluoroacetic Acid Salt], for which the IC50 in test [1] was greater than 2500 nM; in test [3] it was no more than 100 nM; in test [4] it was no more than 100 nM; in test [2] it was greater than 2500 nM.
As for `CN1C(=O)N(c2ccc(C(=O)O)cc2)Cc2c1cnc1[nH]c(-c3ccc(CN4CCC(S(C)(=O)=O)CC4)cc3)c(C#N)c21` [Example 24, 4-(9-Cyano-4-methyl-8-(4-((4-(methylsulfonyl)piperidin-1-yl)methyl)phenyl)-3-oxo-1,3,4,7-tetrahydro-2H-pyrrolo[3′,2′:5,6]pyrido[3,4-d]pyrimidin-2-yl)benzoic acid Trifluoroacetic Acid Salt], the IC50 in test [1] was greater than 2500 nM; in test [3] it was 100 to 500 nM; in test [4], 100 to 500 nM; in test [2] it was greater than 2500 nM.
